Data set [1] in a line: Antioxidant activity of the compound assessed as DPPH radical scavenging activity at 100 uM incubated under light for 30 mins by spectrophotometric analysis relative to control. In kind it is functional.
Data set [2] addresses T1, Cholinesterase (Equus caballus, UniProt P81908).
Description: Inhibition of equine serum BChE using butyrylthiocholine iodide as substrate preincubated for 10 mins followed by substrate addition by Ellman's method
The target of data set [3] is Cholinesterase (Equus caballus) (UniProt P81908). As to the kind of experiment: Inhibition of equine serum BChE using butyrylthiocholine iodide as substrate at 10 uM preincubated for 10 mins followed by substrate addition by Ellman's method relative to control.
Data set [4] deals with T2, Acetylcholinesterase (Electrophorus electricus, UniProt O42275).
Description: Inhibition of electric eel AChE using acetylthiocholine iodide as substrate preincubated for 10 mins followed by substrate addition by Ellman's method
Data set [5] can be described thus: Neurotoxicity against human SH-SY5Y cells assessed as reduction in cell viability at <= 50 uM. Type of data set: toxicity, cell-based.
The target of data set [6] is T1, Cholinesterase. As to the kind of experiment: Competitive inhibition of equine serum BChE using butyrylthiocholine iodide as substrate preincubated for 10 mins followed by substrate addition by Lineweaver-Burk plot analysis.
In data set [7] the target is Acetylcholinesterase (Electrophorus electricus) (UniProt O42275). As to the kind of experiment: Inhibition of electric eel AChE using acetylthiocholine iodide as substrate at 10 uM preincubated for 10 mins followed by substrate addition by Ellman's method relative to control.
The target is the same in data set [8]. Nature of the data set: Non-competitive inhibition of electric eel AChE using acetylthiocholine iodide as substrate assessed as decreased Vmax with constant Km by Ellman's method based Lineweaver-Burk plot analysis.
In data set [9] the target is T2, Acetylcholinesterase. As to the kind of experiment: Non-competitive inhibition of electric eel AChE using acetylthiocholine iodide as substrate preincubated for 10 mins followed by substrate addition by Lineweaver-Burk plot analysis.
The target in data set [10] is T1, Cholinesterase. Nature of the data set: Non-competitive inhibition of equine serum BChE using butyrylthiocholine iodide as substrate preincubated for 10 mins followed by substrate addition by Lineweaver-Burk plot analysis.
Data set [11] in a line: Neurotoxicity against human SH-SY5Y cells assessed as cell viability at 12.5 to 50 uM relative to control. In kind it is toxicity, cell-based. As to conditions: dose 12.5-50 µM, read-out: Activity.
Data set [12] is described as follows: Antioxidant activity of the compound assessed as DPPH radical scavenging activity at 10 uM incubated under light for 30 mins by spectrophotometric analysis relative to control. In kind it is functional.
Data set [13] concerns the target T1, Cholinesterase. As to the kind of experiment: Competitive inhibition of equine serum BChE using butyrylthiocholine iodide as substrate at 3 uM preincubated for 10 mins followed by substrate addition by Lineweaver-Burk plot analysis.
Data set [14] deals with T2, Acetylcholinesterase. Nature of the data set: Competitive inhibition of electric eel AChE using acetylthiocholine iodide as substrate at 11 uM preincubated for 10 mins followed by substrate addition by Lineweaver-Burk plot analysis.
Data set [15] concerns the target Acetylcholinesterase (Electrophorus electricus) (UniProt O42275). Nature of the data set: Mixed-type inhibition of electric eel AchE using acetylthiocholine iodide as substrate assessed as decrease in Vmax with increase in Km preincubated for 10 mins followed by substrate addition by Lineweaver-Burk plot analysis.
For data set [16], the target named is Cholinesterase (Equus caballus) (UniProt P81908). As to the kind of experiment: Mixed-type inhibition of equine serum BChE using butyrylthiocholine iodide as substrate assessed as decrease in Vmax with increase in Km preincubated for 10 mins followed by substrate addition by Lineweaver-Burk plot analysis.
A further data set is described as follows: in vitro. As to conditions: human.
For data set [17], the system named is Mus musculus. As to the kind of experiment: Antialzheimer activity against scopolamine-induced amnesia Swiss mouse model assessed as number of crossings at 1 uM, icv by open field test. Type of data set: functional, organism-based.
Data set [18] concerns Mus musculus. Nature of the data set: Antialzheimer activity against scopolamine-induced amnesia Swiss mouse model assessed as sign of innate preference for objects at 1 uM, icv by novel object recognition test. In kind it is functional, organism-based.
Data set [19] concerns Mus musculus. Nature of the data set: Antialzheimer activity against scopolamine-induced amnesia Swiss mouse model assessed as increase in exploration time at 1 uM, icv by novel object recognition test. Type of data set: functional, organism-based.
For a further data set, the system named is SH-SY5Y. As to the kind of experiment: Neuroprotective activity against H2O2-induced cell death in human SH-SY5Y cells assessed as cell viability at 3.125 to 12.5 uM preincubated for 24 hrs followed by H2O2 addition and measured after 2 hrs by MTT assay. In kind it is functional, cell-based. As to conditions: dose 3.125-12.5 µM, time 26.0 hrs.
A short description of data set [20]: Toxicity in Swiss mouse assessed as novel […] memory at 1 uM, icv by novel object recognition test. The settings on record: in vivo, icv_or_intrathecal.

The source made the active and inactive calls. No cut-off for these calls is given here. Where only a bound is given, the exact number is not on record here.

T2 sequence (O42275 whole entry): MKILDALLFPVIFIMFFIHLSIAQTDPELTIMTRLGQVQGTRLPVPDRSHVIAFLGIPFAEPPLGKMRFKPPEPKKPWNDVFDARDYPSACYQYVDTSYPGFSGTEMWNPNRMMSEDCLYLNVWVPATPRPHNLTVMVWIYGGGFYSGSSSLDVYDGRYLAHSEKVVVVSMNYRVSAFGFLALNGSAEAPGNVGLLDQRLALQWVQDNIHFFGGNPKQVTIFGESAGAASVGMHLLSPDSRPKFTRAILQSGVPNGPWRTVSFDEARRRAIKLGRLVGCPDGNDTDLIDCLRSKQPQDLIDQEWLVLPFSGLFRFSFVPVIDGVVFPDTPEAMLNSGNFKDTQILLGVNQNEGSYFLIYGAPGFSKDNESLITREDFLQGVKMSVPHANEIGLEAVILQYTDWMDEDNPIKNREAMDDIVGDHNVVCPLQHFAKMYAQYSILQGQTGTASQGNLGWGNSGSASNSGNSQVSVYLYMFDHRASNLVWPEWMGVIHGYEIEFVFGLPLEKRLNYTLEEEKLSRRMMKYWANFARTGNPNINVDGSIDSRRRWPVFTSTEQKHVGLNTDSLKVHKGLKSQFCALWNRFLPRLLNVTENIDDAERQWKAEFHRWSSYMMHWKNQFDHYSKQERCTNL
Acetylcholinesterase (Electrophorus electricus), sequence (O42275 24-633 limits assumed): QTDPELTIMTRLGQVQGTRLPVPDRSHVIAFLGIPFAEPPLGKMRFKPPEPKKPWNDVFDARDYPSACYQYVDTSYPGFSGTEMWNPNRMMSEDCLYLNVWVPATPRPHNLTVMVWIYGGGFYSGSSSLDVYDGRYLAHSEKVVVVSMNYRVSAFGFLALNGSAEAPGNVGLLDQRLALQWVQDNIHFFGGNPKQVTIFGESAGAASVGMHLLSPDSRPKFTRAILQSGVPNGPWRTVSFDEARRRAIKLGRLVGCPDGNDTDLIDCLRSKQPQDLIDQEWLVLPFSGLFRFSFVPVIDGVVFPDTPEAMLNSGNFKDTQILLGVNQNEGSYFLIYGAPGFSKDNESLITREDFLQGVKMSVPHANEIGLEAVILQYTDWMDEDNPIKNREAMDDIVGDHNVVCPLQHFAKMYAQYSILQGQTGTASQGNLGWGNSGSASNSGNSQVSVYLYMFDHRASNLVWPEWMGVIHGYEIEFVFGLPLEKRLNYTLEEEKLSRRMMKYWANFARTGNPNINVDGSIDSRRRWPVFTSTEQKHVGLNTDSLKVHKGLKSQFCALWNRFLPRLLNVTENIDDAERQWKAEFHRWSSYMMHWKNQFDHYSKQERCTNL
Cholinesterase (Equus caballus), sequence (P81908 whole entry): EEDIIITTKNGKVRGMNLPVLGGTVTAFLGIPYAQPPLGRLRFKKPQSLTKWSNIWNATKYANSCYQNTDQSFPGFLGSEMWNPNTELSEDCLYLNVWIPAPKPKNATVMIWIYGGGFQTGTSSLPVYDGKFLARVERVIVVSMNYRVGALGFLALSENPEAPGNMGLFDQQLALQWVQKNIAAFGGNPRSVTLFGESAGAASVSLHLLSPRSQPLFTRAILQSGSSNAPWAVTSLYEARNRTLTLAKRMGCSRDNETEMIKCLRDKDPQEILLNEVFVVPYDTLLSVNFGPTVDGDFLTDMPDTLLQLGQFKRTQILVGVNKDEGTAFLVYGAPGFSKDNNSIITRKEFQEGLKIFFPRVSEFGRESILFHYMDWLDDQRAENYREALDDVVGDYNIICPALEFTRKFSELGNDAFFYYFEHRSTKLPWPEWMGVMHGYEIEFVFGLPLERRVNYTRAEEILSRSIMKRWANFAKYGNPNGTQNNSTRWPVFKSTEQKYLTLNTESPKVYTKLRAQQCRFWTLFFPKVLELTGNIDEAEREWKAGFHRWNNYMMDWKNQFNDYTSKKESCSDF
T1 sequence (P81908 whole entry): as above
Description for in vitro: Neurotoxicity against human SH-SY5Y cells assessed as cell viability at 50 uM relative to control

On to `S=C(N/N=C/c1cccs1)Nc1c2ccccc2nc2ccccc12`, for which the Activity in data set [1] amounted to 41.5%. Moreover, the IC50 against Cholinesterase [2] amounted to 2.45 µM; at Acetylcholinesterase [4], 34.6 µM. The molecule also returned an inhibition in data set [3] of 83%.
For `COc1ccc(/C=N/NC(=S)Nc2c3ccccc3nc3ccccc23)cc1O`, in that order: 41.2%, 3.3 µM, 43.3 µM and 83%.
For `S=C(N/N=C/c1ccco1)Nc1c2ccccc2nc2ccccc12`, in that order: 43.9%, 4.4 µM, 28 µM and 83%.
In the case of `S=C(N/N=C/c1ccccc1)Nc1c2ccccc2nc2ccccc12`, the values for the Activity in data set [1] and in data set [5] were 37.9% and “Non-toxic”, respectively. The IC50 at Cholinesterase [2] came to 0.71 µM; against Acetylcholinesterase [4] it was 2.47 µM. The Ki stood at 0.72 µM at Cholinesterase [6], 1.35 µM on Acetylcholinesterase [9] and 1.68 µM at Cholinesterase [10]. For the same molecule, the inhibition in data set [7] was found to be 87%; in data set [3], 83%. The inhibition result in data set [8] is “Active”.
For `S=C(N/N=C/c1c[nH]c2ccccc12)Nc1c2ccccc2nc2ccccc12`, in data set [1], the Activity came to 23.8%. The IC50 came out at 1.68 µM at Cholinesterase [2] and 9.39 µM at Acetylcholinesterase [4]. This molecule showed an inhibition in data set [3] of 83%.
In the case of `S=C(N/N=C/c1cccnc1)Nc1c2ccccc2nc2ccccc12`, the Activity in data set [1] was 15.5%. In data set [3], this molecule had an inhibition of 83%.
With `Fc1ccc(/C=N/NC(=S)Nc2c3ccccc3nc3ccccc23)cc1`, the viability at 50 µM in data set [11] is at most 70%. Further, the Activity in data set [1] was 44.3%. The IC50 against Cholinesterase [2] was 1.35 µM; against Acetylcholinesterase [4], 12.8 µM. In [3], the inhibition is 83%.
For the molecule `S=C(N/N=C/c1ccc(Br)cc1)Nc1c2ccccc2nc2ccccc12`, the IC50 against Cholinesterase [2] worked out at 3.18 µM; at Acetylcholinesterase [4], 9.79 µM. This molecule also returned an inhibition in data set [3] of 83%.
Turning to `COc1ccc(/C=N/NC(=S)Nc2c3ccccc3nc3ccccc23)cc1`, the figures for the IC50 against Cholinesterase [2] and against Acetylcholinesterase [4] were 1.04 µM and 6.2 µM, respectively. Besides, the Activity entry in data set [5] is reported as “Non-toxic”. In data set [3], this molecule registered an inhibition of 83%.
Regarding `Oc1ccc(/C=N/NC(=S)Nc2c3ccccc3nc3ccccc23)cc1`, the IC50 on Cholinesterase [2] came out at 1.73 µM; on Acetylcholinesterase [4], 11.5 µM. The same molecule registered an inhibition in data set [3] of 83%.
The matching figures for `Oc1cccc(/C=N/NC(=S)Nc2c3ccccc3nc3ccccc23)c1`: 2.28 µM, 22 µM and 83%.
For `Cc1[nH]c2ccccc2c1/C=N/NC(=S)Nc1c2ccccc2nc2ccccc12`, the Activity in data set [1] was 61%. In addition, the IC50 was determined as 2.01 µM against Cholinesterase [2] and 8.57 µM against Acetylcholinesterase [4]. In data set [3], this molecule showed an inhibition of 83%.
For the molecule `Cc1ccc(/C=N/NC(=S)Nc2c3ccccc3nc3ccccc23)cc1`, the IC50 against Cholinesterase [2] was 1.54 µM; at Acetylcholinesterase [4], 2.78 µM. The same molecule yielded an inhibition in [3] of 83%.
For `Oc1cccc(/C=N/NC(=S)Nc2c3c(nc4ccccc24)CCCC3)c1`, the Activity in [1] is 12.1%. At Cholinesterase [2], this molecule registered an IC50 of 3.03 µM.
In the case of `CN(C)c1ccc(/C=N/NC(=S)Nc2c3ccccc3nc3ccccc23)cc1`, the values for the IC50 against Cholinesterase [2] and against Acetylcholinesterase [4] were 1.77 µM and 7.6 µM, respectively. The molecule further showed an inhibition in data set [3] of 83%.
On to `Cc1ccc(/C=N/NC(=S)Nc2c3ccccc3nc3ccccc23)c(O)c1`, for which the Activity in data set [1] stood at 28.7%. In addition, the IC50 against Cholinesterase [2] came to 3.19 µM; at Acetylcholinesterase [4], 11.3 µM. In data set [3], this molecule displayed an inhibition of 83%.
As to `O=c1c(O)c(-c2ccc(O)c(O)c2)oc2cc(O)cc(O)c12`, in data set [12], the Activity came out at 51.7%.
As for `S=C(N/N=C/c1ccccc1)Nc1c2c(nc3ccccc13)CCCC2`, in [1], the Activity stood at 32.2%. In addition, the IC50 worked out at 5.38 µM on Cholinesterase [2] and 13.6 µM at Acetylcholinesterase [4]. Besides, the Ki at Cholinesterase [13] came out at 1.41 µM; on Acetylcholinesterase [14], 1.66 µM; at Acetylcholinesterase [9], 9.82 µM; on Cholinesterase [10], 3.63 µM. For the same molecule, the outcome in data set [15] and in [16] was Active.
For the molecule `Oc1ccccc1/C=N/NC(=S)Nc1c2ccccc2nc2ccccc12`, in [1], the Activity amounted to 15.8%. The IC50 against Cholinesterase [2] was found to be 3.13 µM; against Acetylcholinesterase [4] it was 10.8 µM. The inhibition in data set [3] came to 83%.
Turning to `COc1cc2c(cc1OC)C(=O)C(CC1CCN(Cc3ccccc3)CC1)C2` (stereo not drawn) [DONEPEZIL], the viability at 50 µM in “in vitro” (sh-sy5y) was 80%.
For the molecule `CC(C)(C)c1cc(/C=N/NC(=S)Nc2c3ccccc3nc3ccccc23)cc(C(C)(C)C)c1O`, the viability at 50 µM is at most 70% in [11] and 90% in “in vitro” (SH-SY5Y cells). For the same molecule, the result in the data set on Mus musculus [17] and in the data set on Mus musculus [18] was inactive. Further, the values for the Activity in [1] and in data set [20] were 69% and “Toxic”, respectively. For the same molecule, the result with Mus musculus [19] and in the data set with SH-SY5Y was Active. Further, the IC50 against Cholinesterase [2] was found to be 1.15 µM; against Acetylcholinesterase [4], 10.5 µM. The same molecule returned an inhibition in [3] of 83%.
Regarding `S=C(N/N=C/c1ccc(Cl)cc1)Nc1c2ccccc2nc2ccccc12`, the values for the IC50 against Cholinesterase [2] and against Acetylcholinesterase [4] were 2.19 µM and 10.1 µM, respectively. The same molecule gave an inhibition in [3] of 83%.
`S=C(N/N=C/c1ccc(Cl)cc1Cl)Nc1c2ccccc2nc2ccccc12`: the figures for the IC50 against Cholinesterase [2] and against Acetylcholinesterase [4] were 1.06 µM and 6.11 µM, respectively. Besides, the Activity entry in data set [5] was “Non-toxic”. This molecule registered an inhibition in data set [3] of 83%.
`O=[N+]([O-])c1ccc(/C=N/NC(=S)Nc2c3ccccc3nc3ccccc23)cc1`: the figures for the IC50 on Cholinesterase [2] and on Acetylcholinesterase [4] were 0.89 µM and 8.64 µM, respectively. Also, the Activity entry in data set [5] is “Non-toxic”. Besides, the Ki at Cholinesterase [6] was determined as 0.2 µM; at Acetylcholinesterase [9], 2.97 µM; on Cholinesterase [10], 0.53 µM. In addition, the inhibition entry in [8] was “Active”. In data set [3], this molecule gave an inhibition of 83%.

Values taken from ChEMBL document CHEMBL6096640, “Discovery of novel thiosemicarbazone-acridine targeting butyrylcholinesterase with antioxidant, metal complexing and neuroprotector abilities as potential treatment of Alzheimer's disease: In vitro, in vivo, and in silico studies” (Eur J Med Chem, 2025).
